Where a SMILES comes first, the peptide text is derived from it. [ ]: non-standard residue; d: D form.
Legend:
[1] = tested on: ERG and DNA-PKcs enrichment at ERG-regulated genomic loci; format: cell-based
Protocol: VCaP cells were grown in complete medium and treated with peptidomimetics 12 hours prior to harvesting cells. ChIP assays were carried out as previously described (Brenner et al., 2011; supra; Yu et al., 2010; supra) using antibodies against ERG (Santa Cruz, # sc-354), DNA-PKcs (BD Biosciences, #610805), rabbit IgG (Santa Cruz, # sc-2027) or mouse IgG (Santa Cruz, # sc-2025). Briefly, chromatin collected from formaldehyde crosslinked and lysed cells was sonicated to an average length of 600 bp. Supernatants containing chromatin fragments were pre-cleared using protein A/G beads (Upstate) and incubated with 3-5 μg of ERG antibody or IgG overnight prior to the addition of […] of protein A/G beads for 1 hour. Antibody-bead precipitates were then washed six times and antibody/protein/DNA complexes were eluted with 150 μl IP elution buffer (50 mM […], 1% SDS). To reverse the crosslinks, the complexes were incubated in elution buffer containing 10 μg RNase A and 0.3 M NaCl at 67° C. for 4-5 hours. DNA/protein complexes were then precipitated with ethanol, air-dried, and dissolved in 100 μl of TE. Protein was then digested by incubation with proteinase K at 45° C. for 1 hour and DNA was purified using a QIAGEN PCR column according to the manufacturer's protocol. QPCR was performed using appropriate primers as previously described (Brenner et al., 2011; supra).

VCaP cells = format: cell-based
Protocol: The samples were treated with SDS loading buffer supplied with 10 mM DTT for 5 min at 85° C. The proteins were alkylated by adding iodoacetamide to the final concentration of 15 mM. The samples were subjected to SDS-PAGE and the whole lanes were cut out and digested with trypsin in-gel for 2 hours. The resulting peptides were extracted, dried and resuspended in 0.1% formic acid with 5% acetonitrile prior to loading onto a trap EASY-column (Thermo Scientific) coupled to an in-house made nano HPLC column (20 cm×75 um) packed with LUNA C18 media. Analysis was performed on Velos Pro mass spectrometer (Thermo Scientific) operated in data-dependent mode using 90-min gradients in EASY-LC system (Proxeon) with 95% water, 5% acetonitrile (ACN), 0.1% formic acid (FA) (solvent A), and 95% ACN, 5% water, 0.1% FA (solvent B) at a flow rate of 220 nl/min. […]
The resulting spectrum files were transformed into MGF format by MSConvert software and interrogated by MASCOT 2.4 search engine using human UniProt database version 15 concatenated with reverse sequences for estimation of false discovery rate (FDR) and with a list of common contaminants. […] The peptide FDR was calculated as 2×(decoy_hits)/(target+decoy hits). Spectral counts for all detected proteins were assembled using an in-house written Python script. […]

CC(C)C[C@@H](NC(=O)[C@H]1CCCN1C(=O)[C@H]1CCCN1C(=O)[C@@H](Cc1ccc(O)cc1)NC(=O)[C@@H](CC(C)C)NC(=O)[C@@H](Cc1ccccc1)NC(=O)[C@H](NC(=O)CNC(=O)CNC(=O)[C@@H](CCCNC(=N)N)NC(=O)[C@@H](CCCCN)NC(=O)[C@@H](CCCCN)NC(=O)[C@@H](CCCNC(=N)N)NC(=O)[C@@H](CCCNC(=N)N)NC(=O)[C@@H](CCC(N)=O)NC(=O)[C@@H](CCCNC(=N)N)NC(=O)[C@@H](CCCNC(=N)N)NC(=O)[C@@H](CCCNC(=N)N)NC(=O)CN)[C@H](C)O)C(=O)O [RI-EIP1] (H-G[dR][dR][dR][dQ][dR][dR][dK][dK][dR]GG[dT][dF][dL][dY][dP][dP][dL]-OH)
ERG and DNA-PKcs enrichment at ERG-regulated genomic loci [1]: inhibits
depletion of ERG among 3020 proteins identified (VCaP cells): most significantly depleted

Source: patent US10774122B2, “ERG targeted therapy” (The Regents of the University of Michigan, priority 2017, dated 2020)
